Source: ChEMBL document CHEMBL1201862, “PubChem BioAssay data set” (2004)
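All cell lines were grown in 96-well plates and treated with compound for 48 hours. The concentration for 50% growth inhibition is given as GI50.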 The source made the active and inactive calls. No stated cut-off is given here; in the data, active = GI50 up to about 1.1 µM and inactive = higher.

Assays:
Experiment in all cases: NCI-60 cell line screen, 48 h
OVCAR-5 = tested on: OVCAR-5
HCT-116 = tested on: HCT-116
OVCAR-3 = tested on: OVCAR-3
HOP-62 = tested on: HOP-62
UACC-62 = tested on: UACC-62
CCRF-CEM = tested on: CCRF-CEM
MDA-N = tested on: MDA-N
NCI-H522 = tested on: NCI-H522
HL-60 = tested on: HL-60
OVCAR-4 = tested on: OVCAR-4
IGROV-1 = tested on: IGROV-1
SN12C = tested on: SN12C
SK-MEL-2 = tested on: SK-MEL-2
KM12 = tested on: KM12
SF-268 = tested on: SF-268
K562 = tested on: K562
SK-OV-3 = tested on: SK-OV-3
SW-620 = tested on: SW-620
UACC-257 = tested on: UACC-257

Compound | GI50 (OVCAR-5) | GI50 (HCT-116) | GI50 (OVCAR-3) | GI50 (HOP-62) | GI50 (UACC-62) | GI50 (CCRF-CEM) | GI50 (MDA-N) | GI50 (NCI-H522) | GI50 (HL-60) | GI50 (OVCAR-4) | GI50 (IGROV-1) | GI50 (SN12C) | GI50 (SK-MEL-2) | GI50 (KM12) | GI50 (SF-268) | GI50 (K562) | GI50 (SK-OV-3) | GI50 (SW-620) | GI50 (UACC-257)
Cc1nc2c(O)cccc2c(=O)[nH]1 | 382 µM (inactive) | 341 µM (inactive) | 542 µM (inactive) | 437 µM (inactive) | 232 µM (inactive) | 305 µM (inactive) | 504 µM (inactive) | 356 µM (inactive) | 174 µM (inactive) | 399 µM (inactive) | 405 µM (inactive) | 532 µM (inactive) | > 1000 µM (inactive) | 332 µM (inactive) | 467 µM (inactive) | 359 µM (inactive) | 348 µM (inactive) | > 1000 µM (inactive) | 555 µM (inactive)
Nc1nc(N)c(-c2cccc(C(F)(F)F)c2)c(Cc2cccc(C(F)(F)F)c2)n1 | 3.48 µM (inactive) | 0.64 µM (active) | 6.03 µM (inactive) | 6.05 µM (inactive) | 0.693 µM (active) | 6.92 µM (inactive) | 0.689 µM (active) | 4.06 µM (inactive) | 2.2 µM (inactive) | 12.2 µM (inactive) | 1.91 µM (inactive) | 3.54 µM (inactive) | 7.71 µM (inactive) | 5.15 µM (inactive) | 5.55 µM (inactive) | 0.449 µM (active) | 8.97 µM (inactive) | 7.33 µM (inactive) | 3.43 µM (inactive)
COc1cc(/C=C2\Cc3cc(OC)c(OC)cc3C2=O)cc(OC)c1 | > 100 µM (inactive) | 21 µM (inactive) | > 92.3 µM (inactive) | 15.8 µM (inactive) | 14.2 µM (inactive) | > 100 µM (inactive) | 0.771 µM (active) | 3.74 µM (inactive) | 3.18 µM (inactive) | > 45.4 µM (inactive) | 5.93 µM (inactive) | > 74.1 µM (inactive) | > 60 µM (inactive) |  | 45.9 µM (inactive) | 0.479 µM (active) | 17 µM (inactive) | > 100 µM (inactive) | > 87.3 µM (inactive)
NCCC1([N+](=O)[O-])CCNCC1 | > 100 µM (inactive) | > 100 µM (inactive) | > 100 µM (inactive) | > 100 µM (inactive) | > 100 µM (inactive) | > 100 µM (inactive) | > 100 µM (inactive) | > 86.5 µM (inactive) | > 100 µM (inactive) | > 100 µM (inactive) | > 100 µM (inactive) | > 100 µM (inactive) | > 100 µM (inactive) | > 100 µM (inactive) | > 100 µM (inactive) | > 100 µM (inactive) | > 100 µM (inactive) | > 100 µM (inactive) | > 100 µM (inactive)
O=C1c2ccccc2CN1c1ccc(O)cc1 | > 100 µM (inactive) | > 100 µM (inactive) | > 100 µM (inactive) | > 100 µM (inactive) | > 100 µM (inactive) | > 100 µM (inactive) | > 100 µM (inactive) | > 100 µM (inactive) | > 100 µM (inactive) | > 100 µM (inactive) | > 100 µM (inactive) | > 100 µM (inactive) | > 100 µM (inactive) | > 100 µM (inactive) | > 100 µM (inactive) | > 100 µM (inactive) | > 100 µM (inactive) | > 100 µM (inactive) | > 100 µM (inactive)
Nc1nncc2[nH]cnc12 | 49.3 µM (inactive) | 36.6 µM (inactive) | > 100 µM (inactive) | > 100 µM (inactive) | 47.3 µM (inactive) | 5.09 µM (inactive) | 49.5 µM (inactive) | > 100 µM (inactive) | 15 µM (inactive) | > 100 µM (inactive) | 57.8 µM (inactive) | > 79.4 µM (inactive) | > 100 µM (inactive) | 44.1 µM (inactive) | 50.5 µM (inactive) | 7.01 µM (inactive) | 41.5 µM (inactive) | 31 µM (inactive) | 63.5 µM (inactive)
CC(=O)NC1C(OCc2ccccc2)OC(CO)C(O)C1OC(C)C(=O)N[C@@H](C)C(=O)N[C@H](CCC(=O)NCCNCCNc1c2ccccc2nc2cccc([N+](=O)[O-])c12)C(N)=O (some centres not stated) | 0.336 µM (active) | 0.0214 µM (active) | 0.226 µM (active) | 0.192 µM (active) | 0.0659 µM (active) | 0.201 µM (active) | 0.0708 µM (active) | < 0.01 µM (active) | 0.308 µM (active) | 0.0228 µM (active) | 0.0385 µM (active) | 0.104 µM (active) | 0.048 µM (active) | 0.0783 µM (active) | 0.164 µM (active) | 0.0311 µM (active) | 0.348 µM (active) | 0.0266 µM (active) | 0.108 µM (active)
CC(C)(Cc1ccccc1)N1C(=O)N1C(C)(C)Cc1ccccc1 | 19.9 µM (inactive) | 40.6 µM (inactive) | > 100 µM (inactive) |  | 23.8 µM (inactive) | 20.8 µM (inactive) | 38.8 µM (inactive) | 13.8 µM (inactive) | 4.78 µM (inactive) | 34.7 µM (inactive) | 29.9 µM (inactive) | 52 µM (inactive) | 19.7 µM (inactive) | > 100 µM (inactive) | 53.2 µM (inactive) | 27.4 µM (inactive) | 57.4 µM (inactive) | 57 µM (inactive) | 40.9 µM (inactive)
CC(C)[Si](OC1=CCC[C@H]2NC(=O)[C@@H](Cc3ccccc3)[C@@]12C)(C(C)C)C(C)C | 9.44 µM (inactive) | 3.6 µM (inactive) | 5.79 µM (inactive) | 11.9 µM (inactive) | 8.95 µM (inactive) | 2.85 µM (inactive) | 3.95 µM (inactive) | 3.46 µM (inactive) | 2.86 µM (inactive) | 5.25 µM (inactive) | 10.9 µM (inactive) | 3.23 µM (inactive) | 14.2 µM (inactive) | 3.84 µM (inactive) | 12.1 µM (inactive) | 3.2 µM (inactive) | 5.93 µM (inactive) | 2.72 µM (inactive) | 4.54 µM (inactive)
CC(C)(C)C(=O)CP(=O)(O)O | > 100 µM (inactive) | > 100 µM (inactive) | > 100 µM (inactive) | > 100 µM (inactive) | > 100 µM (inactive) | > 100 µM (inactive) | > 100 µM (inactive) | > 100 µM (inactive) | > 100 µM (inactive) | > 100 µM (inactive) | > 100 µM (inactive) | > 100 µM (inactive) | > 100 µM (inactive) | > 100 µM (inactive) | > 100 µM (inactive) | > 100 µM (inactive) | > 100 µM (inactive) | > 100 µM (inactive) | > 100 µM (inactive)
Cc1cc(C)c2c(O)cc(-c3ccc(Cl)cc3)nc2n1 | > 100 µM (inactive) | 24.2 µM (inactive) | 26.9 µM (inactive) | 44.8 µM (inactive) | 60.4 µM (inactive) | 69.3 µM (inactive) | 7.11 µM (inactive) | 46.8 µM (inactive) | 23.1 µM (inactive) | 21.6 µM (inactive) | 27.4 µM (inactive) | > 33 µM (inactive) | 47 µM (inactive) | 16.3 µM (inactive) | > 100 µM (inactive) | 9.79 µM (inactive) | 84.9 µM (inactive) | 26.6 µM (inactive) | 24.4 µM (inactive)
